Data taken from paper PMC8040053 (ACS Medicinal Chemistry Letters, 2021).

Assays:
[1] = molecular target: T1, HDAC3 (Homo sapiens, UniProt O15379); experiment: HDAC3 progress curve analysis / jump dilution; assay type: biochemical; conditions: HDAC3, linear progress curves
[2] = molecular target: T1, HDAC3; experiment: HDAC3 inhibition assay; assay type: biochemical; conditions: for HDAC3 LBE: HDAC3-derived ligand binding efficiency
[3] = Lead profiling panel of 115 biochemical and binding assays at Eurofins Panlabs; conditions: 115-assay panel

T1 sequence (O15379 whole entry): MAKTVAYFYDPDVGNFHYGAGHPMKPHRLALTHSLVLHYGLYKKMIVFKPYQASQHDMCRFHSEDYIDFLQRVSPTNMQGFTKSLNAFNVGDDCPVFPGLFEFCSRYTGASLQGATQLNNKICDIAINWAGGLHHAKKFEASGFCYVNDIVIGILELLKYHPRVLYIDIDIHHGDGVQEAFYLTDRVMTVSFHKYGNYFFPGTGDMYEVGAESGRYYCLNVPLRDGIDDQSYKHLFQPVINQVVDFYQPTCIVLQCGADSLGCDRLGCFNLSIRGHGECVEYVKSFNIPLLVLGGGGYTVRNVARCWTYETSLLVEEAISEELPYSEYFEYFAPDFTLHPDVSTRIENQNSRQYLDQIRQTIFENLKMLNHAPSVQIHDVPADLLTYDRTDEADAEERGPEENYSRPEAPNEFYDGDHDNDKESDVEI
T1 sequence (Q9Y618 1-899 partner limits assumed): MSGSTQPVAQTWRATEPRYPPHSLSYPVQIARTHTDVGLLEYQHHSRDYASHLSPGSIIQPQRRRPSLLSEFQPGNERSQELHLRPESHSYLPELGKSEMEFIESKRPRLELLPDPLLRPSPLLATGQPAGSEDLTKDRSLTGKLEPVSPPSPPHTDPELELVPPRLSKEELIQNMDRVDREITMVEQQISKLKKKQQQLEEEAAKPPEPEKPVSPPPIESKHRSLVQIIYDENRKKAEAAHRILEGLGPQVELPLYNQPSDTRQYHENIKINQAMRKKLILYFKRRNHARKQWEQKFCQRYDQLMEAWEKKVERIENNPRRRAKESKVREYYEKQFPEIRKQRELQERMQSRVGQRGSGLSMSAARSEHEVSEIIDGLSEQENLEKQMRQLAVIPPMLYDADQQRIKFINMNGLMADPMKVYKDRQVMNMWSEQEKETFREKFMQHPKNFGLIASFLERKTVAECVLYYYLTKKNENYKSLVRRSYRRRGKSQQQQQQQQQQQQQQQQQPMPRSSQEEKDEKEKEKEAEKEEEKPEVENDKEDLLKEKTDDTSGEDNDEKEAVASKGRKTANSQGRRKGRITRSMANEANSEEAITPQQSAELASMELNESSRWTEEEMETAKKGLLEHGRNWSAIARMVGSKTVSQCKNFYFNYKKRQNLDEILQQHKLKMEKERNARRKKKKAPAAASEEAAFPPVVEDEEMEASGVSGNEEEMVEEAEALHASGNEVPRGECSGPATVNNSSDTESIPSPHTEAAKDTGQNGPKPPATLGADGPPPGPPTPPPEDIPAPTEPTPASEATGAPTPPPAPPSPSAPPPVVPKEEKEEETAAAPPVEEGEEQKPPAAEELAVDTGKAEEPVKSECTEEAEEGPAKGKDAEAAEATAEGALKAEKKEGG

SMILES	inhibition kinetics mechanism [1]	HDAC3 LBE [2]	selectivity for HDAC inhibition over off-target hits [3]	IC50 ([2]; read-out: HDAC3 IC50, Table 3)
CCCC[C@H](NC(=O)C1CN(C)C1)c1ncc(-c2cc3ccccc3nc2OC)[nH]1 [Compound 12]	fast-on/fast-off kinetics			
CCCC[C@H](NC(=O)[C@H](C)c1c(C)[nH]c2ccc(O)cc12)c1ncc(-c2cc3ccccc3nc2OC)[nH]1 [Compound 19]	fast-on/fast-off kinetics	0.25	10–1000 fold	
CCCC[C@H](NC(=O)[C@H](C)c1c(C)[nH]c2ccc(OC)cc12)c1ncc(-c2cc3ccccc3nc2OC)[nH]1 [Compound 20]		0.25		
CCCC[C@H](NC(=O)[C@H](CN)c1c(C)[nH]c2ccc(OC)cc12)c1ncc(-c2cc3ccccc3nc2OC)[nH]1 [Compound 21]				18 nM
